Measurements as given in ChEMBL document CHEMBL1201862, “PubChem BioAssay data set” (2004).
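Where inhibition never reached the appropriate level, the endpoint shown equals the highest concentration tested. Otherwise, values were interpolated linearly from a five-concentration, 48-hour dose response in 96-well plates. GI50: concentration for 50% inhibition of growth.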 Activity calls are given as the source filed them. Rule as the data show it: active = GI50 up to about 1.1 µM and inactive = higher.

What was measured:
Assay in all cases: DTP human tumour cell line panel, 48 h
NCI/ADR-RES = tested on: NCI/ADR-RES
OVCAR-4 = tested on: OVCAR-4
SW-620 = tested on: SW-620
HT-29 = tested on: HT-29
M14 = tested on: M14
HOP-62 = tested on: HOP-62
UO-31 = tested on: UO-31
HCC 2998 = tested on: HCC 2998
SF-268 = tested on: SF-268
LOX IMVI = tested on: LOX IMVI
OVCAR-3 = tested on: OVCAR-3
RXF 393 = tested on: RXF 393
Malme-3M = tested on: Malme-3M
SF-539 = tested on: SF-539
HOP-92 = tested on: HOP-92
NCI-H522 = tested on: NCI-H522
K562 = tested on: K562
CCRF-CEM = tested on: CCRF-CEM
NCI-H460 = tested on: NCI-H460
A549 = tested on: A549

Row | Structure (SMILES) | GI50 (NCI/ADR-RES) | GI50 (OVCAR-4) | GI50 (SW-620) | GI50 (HT-29) | GI50 (M14) | GI50 (HOP-62) | GI50 (UO-31) | GI50 (HCC 2998) | GI50 (SF-268) | GI50 (LOX IMVI) | GI50 (OVCAR-3) | GI50 (RXF 393) | GI50 (Malme-3M) | GI50 (SF-539) | GI50 (HOP-92) | GI50 (NCI-H522) | GI50 (K562) | GI50 (CCRF-CEM) | GI50 (NCI-H460) | GI50 (A549)
1 | CC(NC(=O)OCc1ccccc1)NC(=O)OC(C)(C)C (stereo unspecified) | > 100 µM (inactive) | > 100 µM (inactive) | > 100 µM (inactive) | > 100 µM (inactive) | > 100 µM (inactive) | > 100 µM (inactive) | > 100 µM (inactive) | > 100 µM (inactive) | > 100 µM (inactive) | > 100 µM (inactive) | > 100 µM (inactive) | 1.24 µM (inactive) | > 100 µM (inactive) | > 100 µM (inactive) | > 100 µM (inactive) | > 100 µM (inactive) | > 100 µM (inactive) | > 100 µM (inactive) | 73.6 µM (inactive) | > 100 µM (inactive)
2 | CC[C@@]1(OP(=O)(O)O)C(=O)OCc2c1cc1n(c2=O)Cc2cc3ccccc3nc2-1 | 0.0718 µM (active) | 1.76 µM (inactive) | 0.403 µM (active) | 0.319 µM (active) | 0.0776 µM (active) | 0.253 µM (active) | 0.0836 µM (active) | 0.771 µM (active) | 0.0486 µM (active) | 0.0391 µM (active) | 2.73 µM (inactive) | 0.454 µM (active) | 1.67 µM (inactive) | 0.109 µM (active) | 0.447 µM (active) | 0.286 µM (active) | 0.438 µM (active) | 0.00927 µM (active) | 0.0308 µM (active) | 0.143 µM (active)
3 | O=C(O)CCC(NC(=O)c1ccc(CNc2nc3cc(C(F)(F)F)ccc3nc2C(=O)O)cc1)C(=O)O (stereo unspecified) | > 100 µM (inactive) | > 100 µM (inactive) | > 100 µM (inactive) | > 100 µM (inactive) | > 100 µM (inactive) | > 100 µM (inactive) | > 100 µM (inactive) | > 100 µM (inactive) | > 100 µM (inactive) | > 100 µM (inactive) | > 100 µM (inactive) | > 100 µM (inactive) | > 100 µM (inactive) | > 100 µM (inactive) | > 100 µM (inactive) | > 100 µM (inactive) | > 100 µM (inactive) | > 100 µM (inactive) | > 100 µM (inactive) | > 100 µM (inactive)
4 | Cc1cc2c(cc1C)[n+]([O-])c(C(=O)/C=C/c1ccc3c(c1)OCO3)c(C)[n+]2[O-] | 74.6 µM (inactive) | > 100 µM (inactive) | > 100 µM (inactive) | > 100 µM (inactive) | 98.9 µM (inactive) | 21 µM (inactive) | > 100 µM (inactive) | > 78.5 µM (inactive) | 29.4 µM (inactive) | 36.7 µM (inactive) | > 86.1 µM (inactive) | 28.7 µM (inactive) | 73.1 µM (inactive) | 56.4 µM (inactive) | 25.6 µM (inactive) | 27.6 µM (inactive) | > 100 µM (inactive) | > 100 µM (inactive) | > 91.8 µM (inactive) | > 92.9 µM (inactive)
5 | C=C(C)C(CC=C(C)C)CC12CC(CC=C(C)C)C(C)(C)C(CC=C(C)C)(C(=O)C(Cc3ccc(O)c(O)c3)=C1O)C2=O (stereo unspecified) | > 100 µM (inactive) | > 100 µM (inactive) | > 100 µM (inactive) | > 100 µM (inactive) | > 100 µM (inactive) | > 100 µM (inactive) | > 100 µM (inactive) | > 100 µM (inactive) | > 100 µM (inactive) | > 100 µM (inactive) | > 100 µM (inactive) | > 100 µM (inactive) | 57.8 µM (inactive) | > 100 µM (inactive) | > 100 µM (inactive) | > 100 µM (inactive) | 99.3 µM (inactive) | 59.6 µM (inactive) | > 100 µM (inactive) | > 100 µM (inactive)
6 | CC(C)[Si](OC1=CCC[C@H]2NC(=O)[C@@H](Cc3ccccc3)[C@@]12C)(C(C)C)C(C)C | 6.49 µM (inactive) | 5.25 µM (inactive) | 2.72 µM (inactive) | 3.43 µM (inactive) | 11.2 µM (inactive) | 11.9 µM (inactive) | 10.1 µM (inactive) | 2.18 µM (inactive) | 12.1 µM (inactive) | 3.03 µM (inactive) | 5.79 µM (inactive) | 4.16 µM (inactive) | 12.8 µM (inactive) | 5.74 µM (inactive) | 2.32 µM (inactive) | 3.46 µM (inactive) | 3.2 µM (inactive) | 2.85 µM (inactive) | 3.52 µM (inactive) | 2.98 µM (inactive)
7 | N#CC(C#N)=C1CCCCc2ccc([N+](=O)[O-])cc21 | > 100 µM (inactive) | > 100 µM (inactive) | 41.9 µM (inactive) | 78.9 µM (inactive) | > 100 µM (inactive) | > 100 µM (inactive) | 92.9 µM (inactive) | > 100 µM (inactive) | > 100 µM (inactive) | 76.2 µM (inactive) | 15.7 µM (inactive) | 40.6 µM (inactive) | > 100 µM (inactive) | > 100 µM (inactive) | > 100 µM (inactive) | 19.4 µM (inactive) | 39.4 µM (inactive) | 40.5 µM (inactive) | > 100 µM (inactive) | > 100 µM (inactive)
8 | O=C1C([P+](c2ccccc2)(c2ccccc2)c2ccccc2)=C([O-])C(=Cc2ccc(Cl)c(Cl)c2)C([O-])=C1[P+](c1ccccc1)(c1ccccc1)c1ccccc1 | 8.71 µM (inactive) | 2.97 µM (inactive) | 2.17 µM (inactive) | 1.91 µM (inactive) | 2.38 µM (inactive) | 3.54 µM (inactive) | 3.75 µM (inactive) | 2.93 µM (inactive) | 1.72 µM (inactive) | 1.06 µM (active) | 1.99 µM (inactive) | 1.71 µM (inactive) | 2.34 µM (inactive) | 2.55 µM (inactive) | 2.34 µM (inactive) | 1.8 µM (inactive) | 1.6 µM (inactive) | 0.465 µM (active) | 2.89 µM (inactive) | 2.62 µM (inactive)
9 | O=C(O)c1ccc(C=C2Sc3ccccc3S2)cc1 | 59.3 µM (inactive) | 55.3 µM (inactive) | > 100 µM (inactive) | 43.5 µM (inactive) | 44.8 µM (inactive) | 81.5 µM (inactive) | 63.8 µM (inactive) | 8.07 µM (inactive) | 52.6 µM (inactive) | 52 µM (inactive) | 30.3 µM (inactive) | 54.5 µM (inactive) | 84.7 µM (inactive) | > 100 µM (inactive) | 64.4 µM (inactive) | 26.1 µM (inactive) | 70.5 µM (inactive) | 55.5 µM (inactive) | 50 µM (inactive) | 43.2 µM (inactive)
10 | Cc1nn(C(=O)c2ccc(Cl)cc2)c2c1C(c1ccc([N+](=O)[O-])cc1)SC(=N)N2 (stereo unspecified) | > 10 µM (inactive) | > 10 µM (inactive) | > 10 µM (inactive) | > 10 µM (inactive) | > 10 µM (inactive) | > 10 µM (inactive) | – | > 10 µM (inactive) | > 10 µM (inactive) | > 10 µM (inactive) | > 10 µM (inactive) | > 10 µM (inactive) | > 10 µM (inactive) | > 10 µM (inactive) | > 10 µM (inactive) | > 10 µM (inactive) | > 10 µM (inactive) | > 10 µM (inactive) | > 10 µM (inactive) | > 10 µM (inactive)
11 | COC12c3ccccc3-c3ccccc3C1[C@@H](C(=O)O)[C@H]2C(=O)O (stereo partly specified) | > 10 µM (inactive) | > 10 µM (inactive) | > 10 µM (inactive) | > 10 µM (inactive) | > 10 µM (inactive) | > 10 µM (inactive) | > 10 µM (inactive) | > 10 µM (inactive) | > 10 µM (inactive) | > 10 µM (inactive) | > 10 µM (inactive) | > 10 µM (inactive) | > 10 µM (inactive) | > 10 µM (inactive) | > 10 µM (inactive) | > 10 µM (inactive) | > 10 µM (inactive) | > 10 µM (inactive) | > 10 µM (inactive) | –
12 | CCC1(OC(=O)CN2CCN(CCO)CC2)C(=O)OCc2c1cc1n(c2=O)Cc2cc3ccccc3nc2-1 (stereo unspecified) | 0.11 µM (active) | 1.77 µM (inactive) | 0.0991 µM (active) | 0.931 µM (active) | 0.265 µM (active) | 0.0867 µM (active) | 0.169 µM (active) | 0.45 µM (active) | 0.138 µM (active) | 0.18 µM (active) | 1.96 µM (inactive) | 0.593 µM (active) | 1.95 µM (inactive) | 0.188 µM (active) | 1.26 µM (inactive) | 0.306 µM (active) | 0.583 µM (active) | 0.0324 µM (active) | 0.0614 µM (active) | 0.307 µM (active)
13 | COc1cc(O)c(C(=O)/C=C/c2ccccc2)c(OC)c1 [FLAVOKAWAIN B] | 3.8 µM (inactive) | 8 µM (inactive) | 3.85 µM (inactive) | 7.66 µM (inactive) | 7.94 µM (inactive) | 12 µM (inactive) | 5.83 µM (inactive) | 2.97 µM (inactive) | 4.98 µM (inactive) | 2.29 µM (inactive) | 7.1 µM (inactive) | 12.5 µM (inactive) | 4.61 µM (inactive) | 3.78 µM (inactive) | 3.72 µM (inactive) | 2.42 µM (inactive) | – | 2.27 µM (inactive) | 3.54 µM (inactive) | 10.3 µM (inactive)
14 | O=C1NCC2(CCN(CCCC3(c4ccc(F)cc4)OCCO3)CC2)N1c1ccccc1 | > 100 µM (inactive) | > 100 µM (inactive) | 32.7 µM (inactive) | 84.5 µM (inactive) | > 100 µM (inactive) | > 100 µM (inactive) | – | > 100 µM (inactive) | > 100 µM (inactive) | > 100 µM (inactive) | > 100 µM (inactive) | > 100 µM (inactive) | > 100 µM (inactive) | > 100 µM (inactive) | 36.7 µM (inactive) | > 100 µM (inactive) | > 100 µM (inactive) | > 100 µM (inactive) | > 100 µM (inactive) | > 100 µM (inactive)
